# Measurements published in ChEMBL document CHEMBL4342403, “New evolutions in the BACE1 inhibitor field from 2014 to 2018” (Bioorg Med Chem Lett, 2019).
# Key:
# Rattus norvegicus [1] = assay: In vivo inhibition of BACE1 in Sprague Dawley rat assessed as reduction in amyloidbeta 40 level in CSF at 10 mg/kg, po measured at 4 hrs post dose by sandwich ELISA relative to control; type: functional
# Rattus norvegicus [2] = assay: In vivo inhibition of BACE1 in Sprague Dawley rat assessed as reduction in amyloidbeta 40 level in brain at 10 mg/kg, po measured at 4 hrs post dose by sandwich ELISA relative to control; type: functional
# Cathepsin D = Cathepsin D (Homo sapiens, UniProt P07339); assay: Inhibition of recombinant Cathepsin D (unknown origin) expressed in CHO cells preincubated for 1 hr followed by substrate addition and measured after 1 hr by FRET assay; type: cell-based
# Beta-secretase 1 [3] = molecular target: T1, Beta-secretase 1 (Homo sapiens, UniProt P56817); assay: Inhibition of BACE1 (unknown origin) assessed as reduction in amyloidbeta 40 level after 24 hrs by cell-based sandwich ELISA
# Beta-secretase 1 [4] = molecular target: T1, Beta-secretase 1; assay: Inhibition of BACE1 (unknown origin) preincubated for 1 hr followed by substrate addition and measured after 1 hr by FRET assay
# T1 sequence (P56817 whole entry): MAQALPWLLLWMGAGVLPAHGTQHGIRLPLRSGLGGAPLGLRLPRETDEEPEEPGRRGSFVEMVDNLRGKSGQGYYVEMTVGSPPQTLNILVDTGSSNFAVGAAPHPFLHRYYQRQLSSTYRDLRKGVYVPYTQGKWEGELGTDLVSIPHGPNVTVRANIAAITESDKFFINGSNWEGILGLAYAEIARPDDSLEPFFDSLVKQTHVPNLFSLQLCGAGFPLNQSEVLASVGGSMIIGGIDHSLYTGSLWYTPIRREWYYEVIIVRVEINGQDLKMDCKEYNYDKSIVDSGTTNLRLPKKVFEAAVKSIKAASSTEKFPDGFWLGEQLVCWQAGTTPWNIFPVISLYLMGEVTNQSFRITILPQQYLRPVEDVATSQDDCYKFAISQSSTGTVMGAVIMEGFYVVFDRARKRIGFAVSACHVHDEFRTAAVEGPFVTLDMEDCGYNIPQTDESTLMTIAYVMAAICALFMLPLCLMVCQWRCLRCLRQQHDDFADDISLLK
# Chain of Cathepsin D (P07339 65-162 limits assumed): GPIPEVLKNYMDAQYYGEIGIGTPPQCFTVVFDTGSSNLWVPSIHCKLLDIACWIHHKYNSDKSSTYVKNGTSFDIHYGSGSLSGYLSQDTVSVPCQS
# Chain of Cathepsin D (P07339 169-412 limits assumed): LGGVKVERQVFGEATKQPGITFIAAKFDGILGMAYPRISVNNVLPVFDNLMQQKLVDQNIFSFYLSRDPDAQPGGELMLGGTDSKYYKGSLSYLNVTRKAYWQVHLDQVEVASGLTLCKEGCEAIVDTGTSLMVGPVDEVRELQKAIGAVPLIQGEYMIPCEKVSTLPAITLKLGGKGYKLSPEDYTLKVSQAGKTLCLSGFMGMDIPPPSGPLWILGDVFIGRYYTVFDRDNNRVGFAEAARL
structure (smiles),measurement,setting,value
Cc1cc(Cl)cnc1C(=O)Nc1ccc(F)c([C@@]2(C)N=C(N)[C@]3(C)CC[C@H]2S3(=O)=O)c1,inhibition in vivo at 10 mg/kg,Rattus norvegicus [1],76%
same,inhibition in vivo at 10 mg/kg,Rattus norvegicus [2],66%
same,IC50,Cathepsin D,1740 µM
same,IC50,Beta-secretase 1 [3],0.002 µM
same,IC50,Beta-secretase 1 [4],0.002 µM
